Laboratory results: patent publication US5852005A, “Tetracyclic triterpenes” (Novartis AG, priority 1994, dated 1998)
Converted amounts (≈) assume the structure as drawn. Where two headings read alike, the source gives them in different places.

Experiments:
[1] = tested on: Spleen cells (proliferative response of lymphocytes to allogenic stimulation); assay: Two-way MLR (Murine Mixed Lymphocyte Reaction); assay type: cell-based, mouse (Balb/c, CBA); conditions: Table 5
Description: 1. Proliferative Response Of Lymphocytes to Allogenic Stimulation
Two-way MLR (Murine Mixed Lymphocyte Reaction)
Spleen cells (0.5×106) from Balb/c mice (female, 8-10 weeks) are co-incubated for 5 .sctn.days with 0.5×10^6 spleen cells from CBA mice (female, 8-10 weeks). The allogenic cells induce a proliferative response in the responder spleen cell population which is measured by labelled precursor incorporation into the DNA. Test compounds are added at the start of incubation at varying concentrations and proliferative response compared with untreated controls.
(§1) Fractions are dissolved in ethanol and tested in the Mishell-Dutton assay (primary humoral immune-response to SRBC in vitro, MD) a mixed lymphocyte reaction (MLR) and on the P-815 mastocytoma cell line for cytotoxicity.

Jurkat cells = assay: Cytotoxic and cytostatic activity using transformed human T-cell line (Jurkat); assay type: cell-based; conditions: Table 5
Description: 2. Cytotoxic and cytostatic activity using a transformed human T-cell line (Jurkat)
5×10^4 Jurkat cells are grown in a final volume of 0.2 ml for 72 hours after which the cell numbers are enumerated by use of an enzymatic assay using p-nitrophenyl-N-acetyl-β-D-glucosamindle as substrate. Test compounds are added at varying concentration at the start of culture and cytotoxicity compared with untreated controls.

P-815 mastocytoma cells = assay: Cytotoxic and cytostatic activity in vitro using the P-815 mastocytoma cell line; assay type: cell-based; conditions: Table 5
Description: as §1

[2] = tested on: GvH reaction (popliteal lymph node weight); assay: Localised Graft-versus-Host (GvH) Reaction in the rat; assay type: in vivo; conditions: up to about 100× more active than corresponding 17β-epimers
Description: 4. Localised Graft-versus-Host (GvH) Reaction in the rat
Spleen cells (1×10^7) from 6 week old female Wistar/Furth (WE) rats are injected subcutaneously on day 0 into the left hind-paw of female (F344×WF)F1 rats weighing about 100 g. Animals are treated for 4 consecutive days and the popliteal lymph nodes are removed and weighed on day 7. The difference in weight between the two lymph nodes is taken as the parameter for evaluating the reaction. Test compounds are administered daily for 4 days at varying dosage p.o. and inhibition compared with untreated controls. Dammara compounds are active (inhibit GvH reaction) in this test model at doses of the order of from 10 μg to 10 mg/kg/day p.o..

[3] = tested on: DTH reaction (footpad swelling); assay: DTH (delayed-type hypersensitivity) induced by SRBC-TH cells; assay type: in vivo, mouse (C57 BL/6); conditions: Mus musculus, po, 24 h, read-out: TEST 9 (DTH) ED50
Description: 50 μl of the SRBC cell suspension (diluted 1:1 v/v with PBS) is injected s.c. into the left hind footpad (to measure non specific increase in footpad swelling due to the injection procedure). Right and left hind footpad thickness is measured 24 hours later.

[4] = tested on: systemic lupus erythematosus (disease onset); assay: Systemic lupus erythematosus (SLE) in the mouse (NZB/NZW); assay type: in vivo, mouse (NZB/NZW F1); conditions: po, read-out: TEST 10 (SLE) ED100
Description: 10. Systemic lupus erythematosus (SLE) in the mouse (NZB/NZW)
Female New Zealand black/white (NZB/NZW) F1 mice spontaneously develop characteristics that resemble systemic lupus erythematosus. […] Treatment starts at 24 weeks of age when animals show proteinurea. Compounds are administered p.o. 3 times a week for a total of 12 weeks. Status is determined every second week and animals are sent for histological evaluation at termination of the experiment Ten mice are used per group.

Compound | IC50 MLR [1] | IC50 Jurkat (Jurkat cells) | IC50 P-815 (P-815 mastocytoma cells) | IC50 ([1]; Mus musculus, Lymphocyte) | IC50 (Jurkat cells; Homo sapiens, Jurkat) | IC50 (P-815 mastocytoma cells; Mus musculus, P815) | activity relative to corresponding 17β-epimers [2] | ED50 ([3]; one trial run) | ED100 ([4]; one trial run) | ED50 [3] | ED100 [4]
COc1cc([C@@H]2c3cc4c(cc3C[C@H]3COC(=O)[C@@H]32)OCO4)cc(OC)c1OC [Silicicolin, reference compound] | 0.002 µg/mL (≈ 5.02 nM) | 0.0025 µg/mL (≈ 6.27 nM) | 0.004 µg/mL (≈ 10 nM) | – | – | – | – | – | – | – | –
C=C(C/C=C/C(C)(C)O)[C@@H]1CC[C@]2(C)[C@@H]1CC[C@@H]1[C@@]3(C)CC[C@H](O)C(C)(C)[C@@H]3CC[C@]12C [compound of formula IC, (17α)-23-(E)-dammara-20,23-diene-3β,25-diol] | 0.011 µg/mL | – | – | 0.0105 µg/mL | > 5 µg/mL | > 5 µg/mL | up to 100 × | 0.004 mg/kg | 0.01 mg/kg | – | –
C=C(C/C=C/C(C)(C)O)[C@H]1CC[C@]2(C)[C@@H]1CC[C@@H]1[C@@]3(C)CC[C@H](O)C(C)(C)[C@@H]3CC[C@]12C [β-EPIMER OF IC, (17β)-23-(E)-dammara-20,23-dien-3β,25-diol] | – | – | – | – | – | – | – | – | – | 10 mg/kg | 10 mg/kg
